Test results as given in PubChem BioAssay (NCI).
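Method: 48-hour compound exposure of cells in 96-well plates, five concentrations, linear interpolation of endpoints. TGI denotes the concentration required for complete inhibition of growth.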

Experiments:
Experiment in all cases: DTP human tumour cell line panel, 48 h
[1] = tested on: U251 CNS
[2] = tested on: TK-10 renal
[3] = tested on: ACHN renal
[4] = tested on: UACC-257 melanoma
[5] = tested on: K-562 leukemia
[6] = tested on: SF-295 CNS
[7] = tested on: NCI-H23 lung
[8] = tested on: SN12C renal
[9] = tested on: IGROV1 ovarian
[10] = tested on: RXF 393 renal
[11] = tested on: MDA-MB-435
[12] = tested on: OVCAR-3 ovarian
[13] = tested on: LOX IMVI melanoma
[14] = tested on: MDA-N
[15] = tested on: EKVX NSCLC
[16] = tested on: NCI-H522 lung
[17] = tested on: KM12 colon
[18] = tested on: MCF7 breast
[19] = tested on: T-47D breast
[20] = tested on: NCI/ADR-RES ovarian
[21] = tested on: OVCAR-4 ovarian
[22] = tested on: HOP-92 NSCLC
[23] = tested on: MOLT-4 leukemia
[24] = tested on: M14 melanoma
[25] = tested on: SK-MEL-5 melanoma
[26] = tested on: OVCAR-8 ovarian
[27] = tested on: SF-268 CNS
[28] = tested on: SNB-19 CNS
[29] = tested on: SF-539 CNS
[30] = tested on: HT29 colon
[31] = tested on: MDA-MB-231 breast
[32] = tested on: COLO 205 colon
[33] = tested on: 786-0 renal
[34] = tested on: UO-31 renal
[35] = tested on: A498 renal
[36] = tested on: HCT-15 colon
[37] = tested on: CAKI-1 renal
[38] = tested on: MALME-3M melanoma
[39] = tested on: SK-MEL-2 melanoma
[40] = tested on: NCI-H460 lung
[41] = tested on: HOP-62 NSCLC
[42] = tested on: SNB-75 CNS
[43] = tested on: HCC-2998 colon
[44] = tested on: DU-145 prostate
[45] = tested on: HS 578T breast
[46] = tested on: SK-MEL-28 melanoma
[47] = tested on: SK-OV-3 ovarian
[48] = tested on: A549 NSCLC
[49] = tested on: SW-620 colon
[50] = tested on: CCRF-CEM leukemia
[51] = tested on: UACC-62 melanoma
[52] = tested on: PC-3 prostate
[53] = tested on: BT-549 breast
[54] = tested on: HCT-116 colon
[55] = tested on: NCI-H226 lung
[56] = tested on: HL-60(TB) leukemia
[57] = tested on: OVCAR-5 ovarian
[58] = tested on: RPMI-8226 leukemia

Cc1[nH]c(=O)nc2nc3cc(Cl)cc(Cl)c3c(NC(C)(CO)CO)c12
TGI [1]: 28.8 µM
TGI [2]: 84.1 µM
TGI [3]: > 100 µM
TGI [4]: > 100 µM
TGI [5]: > 100 µM
TGI [6]: > 100 µM
TGI [7]: > 100 µM
TGI [8]: > 100 µM
TGI [9]: > 100 µM
TGI [10]: > 100 µM
TGI [11]: > 100 µM
TGI [12]: > 100 µM
TGI [13]: > 100 µM
TGI [14]: > 100 µM
TGI [15]: > 100 µM
TGI [16]: > 100 µM
TGI [17]: > 100 µM
TGI [18]: > 100 µM
TGI [19]: > 100 µM
TGI [20]: > 100 µM
TGI [21]: > 100 µM
TGI [22]: 57.7 µM
TGI [23]: > 100 µM
TGI [24]: > 100 µM
TGI [25]: > 100 µM
TGI [26]: > 100 µM
TGI [27]: > 100 µM
TGI [28]: > 100 µM
TGI [29]: > 100 µM
TGI [30]: > 100 µM
TGI [31]: 36.9 µM
TGI [32]: > 100 µM
TGI [33]: 91.6 µM
TGI [34]: > 100 µM
TGI [35]: 99.4 µM
TGI [36]: > 100 µM
TGI [37]: > 100 µM
TGI [38]: > 100 µM
TGI [39]: > 100 µM
TGI [40]: > 100 µM
TGI [41]: 83.7 µM
TGI [42]: 38.6 µM
TGI [43]: > 100 µM
TGI [44]: > 100 µM
TGI [45]: > 100 µM
TGI [46]: > 100 µM
TGI [47]: > 100 µM
TGI [48]: > 100 µM
TGI [49]: > 100 µM
TGI [50]: > 100 µM
TGI [51]: > 100 µM
TGI [52]: > 100 µM
TGI [53]: > 100 µM
TGI [54]: > 100 µM
TGI [55]: > 100 µM

CC(=O)Nc1ccc2c(c1)/C(=C\c1ccc([N+](C)(C)C)cc1)c1ccccc1-2
TGI [1]: > 100 µM
TGI [2]: > 100 µM
TGI [3]: > 100 µM
TGI [4]: 79.1 µM
TGI [5]: > 100 µM
TGI [6]: > 100 µM
TGI [7]: > 100 µM
TGI [8]: > 100 µM
TGI [9]: > 100 µM
TGI [10]: > 100 µM
TGI [11]: > 100 µM
TGI [12]: > 100 µM
TGI [13]: > 100 µM
TGI [14]: > 100 µM
TGI [15]: 78.6 µM
TGI [16]: > 100 µM
TGI [17]: > 100 µM
TGI [18]: > 100 µM
TGI [19]: 90.1 µM
TGI [20]: > 100 µM
TGI [21]: > 100 µM
TGI [22]: 79.9 µM
TGI [23]: > 100 µM
TGI [24]: 33.8 µM
TGI [56]: 59.5 µM
TGI [25]: 61.8 µM
TGI [26]: > 100 µM
TGI [27]: > 100 µM
TGI [28]: > 100 µM
TGI [30]: > 100 µM
TGI [31]: > 100 µM
TGI [32]: 35.6 µM
TGI [57]: 80.4 µM
TGI [33]: > 100 µM
TGI [34]: > 100 µM
TGI [35]: > 100 µM
TGI [36]: > 100 µM
TGI [37]: > 100 µM
TGI [38]: > 100 µM
TGI [40]: > 100 µM
TGI [41]: > 100 µM
TGI [58]: 91.3 µM
TGI [42]: > 100 µM
TGI [43]: > 100 µM
TGI [44]: > 100 µM
TGI [45]: 88.3 µM
TGI [46]: > 100 µM
TGI [47]: > 100 µM
TGI [48]: > 100 µM
TGI [49]: > 100 µM
TGI [50]: 50.9 µM
TGI [51]: > 100 µM
TGI [52]: > 100 µM
TGI [53]: > 100 µM
TGI [54]: > 100 µM
TGI [55]: 74.4 µM
